The text below walks through data of patent US12152038B2, “Vasopressin receptor antagonists and products and methods related thereto” (Neumora Therapeutics, Inc., priority 2017, dated 2024).

One may read the IC50 as the point on the concentration scale where inhibition reaches its midpoint.

Assay [1] has as its target T1, human Arginine Vasopressin Receptor 1a (AVPR1a) (Homo sapiens, UniProt P37288).
T1 construct: expressed in transfected cells; host or cells: CHO (CHO-AVPR1a, kept under G418 selection)
Description: Vasopressin V1a receptor antagonist assay (FLIPR calcium, CHO-AVPR1a cells). It counts as cell-based. In a few lines:
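CHO cells expressing human AVPR1a were loaded with Calcium-6 dye and preincubated with compound for 15 min at 37° C. Cells were then challenged with AVP at its daily-determined EC80, and FLIPR fluorescence was read. Compounds were tested in duplicate as 10-point 1:3 dilutions from a top final concentration of 3 μM.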

Assay [2] has as its target T2, human Oxytocin Receptor (hOTR) (Homo sapiens, UniProt P30559).
T2 construct: host or cells: CHEM-1 (ready-to-assay frozen cells)
T2 sequence (P30559 1-389): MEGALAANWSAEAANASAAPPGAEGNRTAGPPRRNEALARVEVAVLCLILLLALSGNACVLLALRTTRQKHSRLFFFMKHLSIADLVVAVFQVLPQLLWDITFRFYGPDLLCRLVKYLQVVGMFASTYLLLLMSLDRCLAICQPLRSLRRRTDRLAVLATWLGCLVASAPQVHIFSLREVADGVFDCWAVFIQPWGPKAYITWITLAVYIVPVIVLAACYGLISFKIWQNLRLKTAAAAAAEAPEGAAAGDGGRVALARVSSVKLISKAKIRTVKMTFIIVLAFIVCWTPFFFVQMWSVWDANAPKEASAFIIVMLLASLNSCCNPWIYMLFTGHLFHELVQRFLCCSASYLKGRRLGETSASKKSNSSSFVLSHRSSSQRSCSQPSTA
The experiment in a line: Oxytocin receptor (OTR) antagonist assay (FLIPR calcium, CHEM-1-hOTR cells). It counts as cell-based. In a few lines:
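CHEM-1 cells expressing human OTR were loaded with Calcium-6 dye in HBSS/20 mM HEPES and preincubated with compound (10-point, 1:3 series) for 15 min at 37° C. Cells were then challenged with oxytocin at its daily-determined EC80. Calcium fluorescence was read on FLIPR for 3 min after each addition.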

T1 sequence (P37288 whole entry): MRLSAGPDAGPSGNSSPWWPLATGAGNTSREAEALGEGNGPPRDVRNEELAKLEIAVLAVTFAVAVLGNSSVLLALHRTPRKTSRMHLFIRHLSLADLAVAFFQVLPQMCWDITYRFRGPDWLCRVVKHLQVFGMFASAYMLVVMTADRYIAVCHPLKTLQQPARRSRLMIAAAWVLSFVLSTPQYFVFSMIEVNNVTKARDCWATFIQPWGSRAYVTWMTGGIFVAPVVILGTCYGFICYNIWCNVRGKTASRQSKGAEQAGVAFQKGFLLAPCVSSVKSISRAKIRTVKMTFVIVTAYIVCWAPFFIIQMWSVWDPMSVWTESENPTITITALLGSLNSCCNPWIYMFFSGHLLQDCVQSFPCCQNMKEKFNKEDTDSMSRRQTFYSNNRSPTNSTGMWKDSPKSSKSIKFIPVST

`O=C(N1CC2(C1)CN(c1ccccn1)C2)N1CCC(O)c2cc(Cl)ccc21` (single isomer, unassigned) [13-2-A]: the half-maximal inhibitory concentration (IC50) was less than 100 nM in assay [1] and 500 to 1000 nM in assay [2].

As for `COc1ccnc(N2CC3(CN(C(=O)N4c5ccc(Cl)cc5OCC4C)C3)C2)n1` (single isomer, unassigned) [20-9-B], the values for the half-inhibitory concentration (IC50) in assay [1] and in assay [2] were less than 100 nM and 500 to 1000 nM, respectively.
